Measured values taken from patent US7605156B2, “Methods for the use of inhibitors of cytosolic phospholipase A2” (Wyeth, priority 2001, dated 2009).

Each compound was assayed against T1, cPLA2 (Homo sapiens, UniProt P47712) (assay: Coumarine assay (hydrolysis of 7-hydroxycoumarinyl 6-heptenoate)). Settings: 60 μM 7-hydroxycoumarinyl 6-heptenoate, pH 7.5; read-out: Coumarin IC50.
T1 sequence (P47712 1-749): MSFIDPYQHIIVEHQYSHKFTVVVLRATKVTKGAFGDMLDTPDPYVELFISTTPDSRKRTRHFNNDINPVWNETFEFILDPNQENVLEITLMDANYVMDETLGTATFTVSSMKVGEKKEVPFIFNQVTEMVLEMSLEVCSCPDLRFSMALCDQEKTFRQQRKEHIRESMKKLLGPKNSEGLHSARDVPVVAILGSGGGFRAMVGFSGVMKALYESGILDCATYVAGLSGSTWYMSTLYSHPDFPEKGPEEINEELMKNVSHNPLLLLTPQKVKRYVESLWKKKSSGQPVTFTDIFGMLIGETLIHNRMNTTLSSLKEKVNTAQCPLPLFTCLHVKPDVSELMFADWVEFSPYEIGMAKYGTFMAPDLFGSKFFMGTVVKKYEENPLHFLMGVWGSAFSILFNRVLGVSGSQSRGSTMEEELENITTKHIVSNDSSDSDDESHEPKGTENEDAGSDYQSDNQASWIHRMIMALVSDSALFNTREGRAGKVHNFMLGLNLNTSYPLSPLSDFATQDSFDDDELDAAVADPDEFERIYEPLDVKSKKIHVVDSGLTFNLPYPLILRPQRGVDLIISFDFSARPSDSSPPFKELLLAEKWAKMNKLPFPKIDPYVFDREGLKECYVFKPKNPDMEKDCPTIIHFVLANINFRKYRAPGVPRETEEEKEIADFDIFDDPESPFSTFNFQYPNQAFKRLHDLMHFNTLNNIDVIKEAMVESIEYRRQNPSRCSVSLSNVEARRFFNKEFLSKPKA
Format: biochemical

Compound | IC50
4-(2-{1-benzhydryl-5-chloro-2-[2-({[(5,6-dichloropyridine-2-yl)methyl]sulfonyl}amino)ethyl]-1H-indol-3-yl}ethoxy)benzoic acid [Example 76] | 400 nM
4-(3-{2-[2-({[2-(aminomethyl)phenyl]sulfonyl}amino)ethyl]-1-benzhydryl-5-chloro-1H-indol-3-yl}propyl)benzoic acid [Example 156] | 160 nM
4-[2-(1-benzhydryl-5-chloro-2-{2-[({2-[(3R,5S)-3,5-dimethylmorpholin-4-yl]ethyl}sulfonyl)amino]ethyl}-1H-indol-3-yl)ethoxy]benzoic acid [Example 250] | 2100 nM
4-{2-[1-benzhydryl-5-chloro-2-(2-{[(2,6-dimethylbenzyl)sulfonyl]amino}ethyl)-1H-indol-3-yl]ethoxy}benzoic acid [Example 279] | 160 nM
O=C(O)c1ccc(OCCc2c(CCNS(=O)(=O)Cc3cccc(C(F)(F)F)c3)n(C(c3ccccc3)c3ccccc3)c3ccc(Cl)cc23)cc1 [Example 12] | 150000 nM
O=C(O)c1ccc(OCCc2c(CCNS(=O)(=O)Cc3ccccc3)n(C(c3ccccc3)c3ccccc3)c3ccc(N4CCOCC4)cc23)cc1 [Example 33, 4-[2-(1-benzhydryl-2-{2-[(benzylsulfonyl)amino]ethyl}-5-morpholin-4-yl-1H-indol-′3-yl)ethoxy]benzoic acid] | 2900 nM
O=C(O)c1ccc(OCCc2c(CCNS(=O)(=O)Cc3cc(F)cc(F)c3)n(C(c3ccccc3)c3ccccc3)c3ccc(Cl)cc23)cc1 [Example 35, 4-{2-[1-benzhydryl-5-chloro-2-(2-{[(3,5-difluorobenzyl)-sulfonyl]amino}ethyl)-1H-indol-3-yl]ethoxy}benzoic acid] | 330 nM
O=C(O)c1ccc(OCCc2c(CCNS(=O)(=O)Cc3cccc(C(F)(F)F)c3)n(C(c3ccccc3)c3ccccc3)c3ccc(Cl)cc23)cc1 [Example 47, 4-(2-{1-benzhydryl-5-chloro-2-[2-({[3-(trifluoromethyl)benzyl]sulfonyl}amino)ethyl]-1H-indol-3-yl}ethoxy)benzoic acid] | 580 nM
O=C(O)c1ccc(CCCc2c(CCNS(=O)(=O)Cc3ccccc3[N+](=O)[O-])n(C(c3ccccc3)c3ccccc3)c3ccc(Cl)cc23)cc1 [Example 56, 4-{3-[5-Chloro-1-(diphenylmethyl)-2-(2-{[(2-nitrobenzyl)sulfonyl]amino}ethyl)-1H-indol-3-yl]propyl}benzoic acid] | 130 nM
O=C(O)c1ccc(CCCc2c(CCNS(=O)(=O)Cc3ccc(Cl)cc3)n(C(c3ccccc3)c3ccccc3)c3ccc(Cl)cc23)cc1 [Example 60, 4-{3-[1-benzhydryl-5-chloro-2-(2-{[(4-chlorobenzyl)sulfonyl]amino}ethyl)-1H-indol-3-yl]propyl}benzoic acid] | 150 nM
O=C(O)c1ccc(OCCc2c(CCNS(=O)(=O)CCN3CCC(O)CC3)n(C(c3ccccc3)c3ccccc3)c3ccc(Cl)cc23)cc1 [Example 123, 4-[2-(1-Benzhydryl-5-chloro-2-{2-[2-(4-hydroxy-piperidin-1-yl)-ethanesulfonylamino]-ethyl}-1H-indol-3-yl)-ethoxy]-benzoic acid] | 1500 nM
O=C(O)CCc1ccc(S(=O)(=O)CCc2c(CCNS(=O)(=O)Cc3ccc(Cl)c(Cl)c3)n(C(c3ccccc3)c3ccccc3)c3ccc(Cl)cc23)cc1 [Example 129, 3-[4-({2-[1-benzhydryl-5-chloro-2-(2-{[(3,4-dichlorobenzyl)sulfonyl]amino}ethyl)-1H-indol-3-yl]ethyl}sulfonyl)phenyl] propanoic acid] | 130 nM
O=C(O)c1ccc(CCCc2c(CCNS(=O)(=O)c3c(Cl)cc(Cl)cc3Cl)n(C(c3ccccc3)c3ccccc3)c3ccc(Cl)cc23)cc1 [Example 154, 4-{3-[1-benzhydryl-5-chloro-2-(2-([(2,4,6-trichlorophenyl)sulfonyl]amino}ethyl)-1H-indol-3-yl]propyl}benzoic acid] | 350 nM
O=C(O)c1ccc(OCCc2c(CCNS(=O)(=O)c3ccc(Cl)cc3Cl)n(C(c3ccccc3)c3ccccc3)c3ccc(Cl)cc23)cc1 [Example 159, 4-{2-[1-benzhydryl-5-chloro-2-(2-{[(2,4-dichlorophenyl)sulfonyl]amino}ethyl)-1H-indol-3-yl]ethoxy}benzoic acid] | 650 nM
O=C(O)c1ccc(OCCc2c(CCNS(=O)(=O)c3c(Cl)cccc3Cl)n(C(c3ccccc3)c3ccccc3)c3ccc(Cl)cc23)cc1 [Example 160, 4-{2-[1-benzhydryl-5-chloro-2-(2-{[(2,6-dichlorophenyl)sulfonyl]amino}ethyl)-1H-indol-3-yl]ethoxy}benzoic acid] | 190 nM
O=C(O)c1ccc(OCCc2c(CCNS(=O)(=O)c3c(Cl)cc(Cl)cc3Cl)n(C(c3ccccc3)c3ccccc3)c3ccc(Cl)cc23)cc1 [Example 161, 4-{2-[1-benzhydryl-5-chloro-2-(2-{[(2,4,6-trichlorophenyl)sulfonyl]amino}ethyl)-1H-indol-3-yl]ethoxy}benzoic acid] | 320 nM
NCc1ccccc1S(=O)(=O)NCCc1c(CCOc2ccc(C(=O)O)cc2)c2cc(Cl)ccc2n1C(c1ccccc1)c1ccccc1 [Example 163, 4-(2-{2-[2-({[2-(aminomethyl)phenyl]sulfonyl}amino)ethyl]-1-benzhydryl-5-chloro-1H-indol-3-yl}ethoxy)benzoic acid] | 300 nM
O=C(O)c1ccc(OCCc2c(CCNS(=O)(=O)c3ccccc3-c3ccccc3)n(C(c3ccccc3)c3ccccc3)c3ccc(Cl)cc23)cc1 [Example 164, 4-[2-(1-benzhydryl-2-{2-[(1,1′-biphenyl-2-ylsulfonyl)amino]ethyl}-5-chloro-1H-indol-3-yl)ethoxy]benzoic acid] | 200 nM
COc1cc(C)ccc1S(=O)(=O)NCCc1c(CCCc2ccc(C(=O)O)cc2)c2cc(Cl)ccc2n1C(c1ccccc1)c1ccccc1 [Example 167, 4-{3-[1-benzhydryl-5-chloro-2-(2-{[(2-methoxy-4-methylphenyl)sulfonyl]amino}ethyl)-1H-indol-3-yl]propyl}benzoic acid] | 190 nM

Continued by falling IC50, values first:

IC50 | Compound
980 nM | Nc1ccccc1CS(=O)(=O)NCCc1c(CCOc2ccc(C(=O)O)cc2)c2cc(Cl)ccc2n1C(c1ccccc1)c1ccccc1 [Example 16]
530 nM | O=C(O)c1ccc(OCCc2c(CCNS(=O)(=O)c3ccccc3Br)n(C(c3ccccc3)c3ccccc3)c3ccc(Cl)cc23)cc1 [Example 165, 4-{2-[1-benzhydryl-2-(2-{[(2-bromophenyl)sulfonyl]amino}ethyl)-5-chloro-1H-indol-3-yl]ethoxy}benzoic acid]
450 nM | N#Cc1ccccc1S(=O)(=O)NCCc1c(CCCc2ccc(C(=O)O)cc2)c2cc(Cl)ccc2n1C(c1ccccc1)c1ccccc1 [Example 155, 4-{3-[1-benzhydryl-5-chloro-2-(2-{[(2-cyanophenyl)sulfonyl]amino}ethyl)-1H-indol-3-yl]propyl}benzoic acid]
400 nM | O=C(O)c1ccc(CCCc2c(CCNS(=O)(=O)c3cc(Cl)c(F)cc3F)n(C(c3ccccc3)c3ccccc3)c3ccc(Cl)cc23)cc1 [Example 166, 4-{3-[1-benzhydryl-5-chloro-2-(2-{[(5-chloro-2,4-difluorophenyl)sulfonyl]amino}ethyl)-1H-indol-3-yl]propyl}benzoic acid]
320 nM | O=C(O)c1ccc(CCCc2c(CCNS(=O)(=O)c3ccc(Cl)cc3Cl)n(C(c3ccccc3)c3ccccc3)c3ccc(Cl)cc23)cc1 [Example 152, 4-{3-[1-benzhydryl-5-chloro-2-(2-{[(2,4-dichlorophenyl)sulfonyl]-amino}ethyl)-1H-indol-3-yl]propyl}benzoic acid]
200 nM | O=C(O)c1ccc(CCCc2c(CCNS(=O)(=O)c3ccccc3-c3ccccc3)n(C(c3ccccc3)c3ccccc3)c3ccc(Cl)cc23)cc1 [Example 157, 4-[3-(1-benzhydryl-2-{2-[(1,1′-biphenyl-2-ylsulfonyl)amino]ethyl}-5-chloro-1H-indol-3-yl)propyl]benzoic acid]
200 nM | O=C(O)c1ccc(CCCc2c(CCNS(=O)(=O)c3ccccc3Br)n(C(c3ccccc3)c3ccccc3)c3ccc(Cl)cc23)cc1 [Example 158, 4-{3-[1-benzhydryl-2-(2-{[(2-bromophenyl)sulfonyl]amino}ethyl)-5-chloro-1H-indol-3-yl]propyl}benzoic acid]
170 nM | O=C(O)CCc1ccc(S(=O)(=O)CCc2c(CCNS(=O)(=O)Cc3ccccc3)n(C(c3ccccc3)c3ccccc3)c3ccc(Cl)cc23)cc1 [Example 130, 3-(4-{[2-(1-Benzhydryl-2-{2-[(benzylsulfonyl)amino]ethyl}-5-chloro-1H-indol-3-yl)ethyl]sulfonyl}phenyl)propanoic acid]
160 nM | O=C(O)c1ccc(CCCc2c(CCNS(=O)(=O)c3c(Cl)cccc3Cl)n(C(c3ccccc3)c3ccccc3)c3ccc(Cl)cc23)cc1 [Example 153, 4-{3-[1-benzhydryl-5-chloro-2-(2-{[(2,6-dichlorophenyl)sulfonyl]amino}ethyl)-1H-indol-3-yl]propyl}benzoic acid]
